Values quoted from earlier work, collected in US9532875B2, “Combined space maintenance and bone regeneration system for the reconstruction of large osseous defects” (WILLIAM MARSH RICE UNIVERSITY, priority 2010, dated 2017).

System: susceptible species
Details: reported

In the case of Colistin sulfate salt, the “minimum inhibitory concentrations (MICs)” value is given as 0.5 to 5 µg/mL.
